Results: PubChem BioAssay AID1845211 (Molecular Pharmacology Branch, DTP, NCI, 2023)

Test system: NCI-H322M multicellular tumor spheroids, viability (% test/control)
Assay: Anticancer human tumor NCI-H322M cell line growth inhibition;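 on viability, T/C: spheroids exposed to compound for seven days before readout; 100% = DMSO vehicle control wells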
Conditions: for IC50: curve of first compound; for viability, T/C: stronger effect = lower value
Method in brief: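 Complex spheroids of malignant cells with endothelial cells and mesenchymal stem cells; agents alone or combined, from near clinical Cmax (or 10 microM if unknown) down in half-log steps, 0.25% DMSO final.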

[1] = second compound 0.003 µM, first compound 0.0316 µM
[2] = second compound 0.003 µM, first compound 0.1 µM
[3] = second compound 0.003 µM, first compound 0.316 µM
[4] = second compound 0.003 µM, first compound 1 µM
[5] = second compound 0.003 µM, first compound 3.16 µM
[6] = second compound 0.003 µM, first compound 10 µM
[7] = second compound 0.00949 µM, first compound 0.0316 µM
[8] = second compound 0.00949 µM, first compound 0.1 µM
[9] = second compound 0.00949 µM, first compound 0.316 µM
[10] = second compound 0.00949 µM, first compound 1 µM
[11] = second compound 0.00949 µM, first compound 3.16 µM
[12] = second compound 0.00949 µM, first compound 10 µM
[13] = second compound 0.03 µM, first compound 0.0316 µM
[14] = second compound 0.03 µM, first compound 0.1 µM
[15] = second compound 0.03 µM, first compound 0.316 µM
[16] = second compound 0.03 µM, first compound 1 µM
[17] = second compound 0.03 µM, first compound 3.16 µM
[18] = second compound 0.03 µM, first compound 10 µM
[19] = second compound 0.0949 µM, first compound 0.0316 µM
[20] = second compound 0.0949 µM, first compound 0.1 µM
[21] = second compound 0.0949 µM, first compound 0.316 µM
[22] = second compound 0.0949 µM, first compound 1 µM
[23] = second compound 0.0949 µM, first compound 3.16 µM
[24] = second compound 0.0949 µM, first compound 10 µM
[25] = second compound 0.3 µM, first compound 0.0316 µM
[26] = second compound 0.3 µM, first compound 0.1 µM
[27] = second compound 0.3 µM, first compound 0.316 µM
[28] = second compound 0.3 µM, first compound 1 µM
[29] = second compound 0.3 µM, first compound 3.16 µM
[30] = second compound 0.3 µM, first compound 10 µM

## CC(C)n1c(=O)n(C)c2cnc3cc(F)c(-c4ccc(OCCCN5CCCCC5)nc4)cc3c21 + CC[C@@]1(O)C(=O)OCc2c1cc1n(c2=O)Cc2cc3c(CN(C)C)c(O)ccc3nc2-1
Second compound 0.003 µM
  IC50: > 10 µM
Second compound 0.00949 µM
  IC50: > 10 µM
Second compound 0.03 µM
  IC50: > 10 µM
Second compound 0.0949 µM
  IC50: > 10 µM
Second compound 0.3 µM
  IC50: > 10 µM
[1]
  viability, T/C: 73.3%
[2]
  viability, T/C: 81.4%
[3]
  viability, T/C: 80%
[4]
  viability, T/C: 75.9%
[5]
  viability, T/C: 77.4%
[6]
  viability, T/C: 73.2%
[7]
  viability, T/C: 73.2%
[8]
  viability, T/C: 72.8%
[9]
  viability, T/C: 77.3%
[10]
  viability, T/C: 75.3%
[11]
  viability, T/C: 85.1%
[12]
  viability, T/C: 71.4%
[13]
  viability, T/C: 67.2%
[14]
  viability, T/C: 73.8%
[15]
  viability, T/C: 65.3%
[16]
  viability, T/C: 72.5%
[17]
  viability, T/C: 73%
[18]
  viability, T/C: 70.2%
[19]
  viability, T/C: 58.8%
[20]
  viability, T/C: 56.5%
[21]
  viability, T/C: 69.3%
[22]
  viability, T/C: 65.2%
[23]
  viability, T/C: 67.2%
[24]
  viability, T/C: 68.6%
[25]
  viability, T/C: 53.3%
[26]
  viability, T/C: 50.3%
[27]
  viability, T/C: 54.7%
[28]
  viability, T/C: 62.6%
[29]
  viability, T/C: 61.6%
[30]
  viability, T/C: 55%

## CC1COCCN1c1cc(-c2ccnn2C)c2ccnc(-c3ccn[nH]3)c2n1 (stereo not given) + CC[C@@]1(O)C(=O)OCc2c1cc1n(c2=O)Cc2cc3c(CN(C)C)c(O)ccc3nc2-1
Second compound 0.003 µM
  IC50: < 0.0316 µM
Second compound 0.00949 µM
  IC50: < 0.0316 µM
Second compound 0.03 µM
  IC50: < 0.0316 µM
Second compound 0.0949 µM
  IC50: < 0.0316 µM
Second compound 0.3 µM
  IC50: < 0.0316 µM
[1]
  viability, T/C: 55.8%
[2]
  viability, T/C: 40.6%
[3]
  viability, T/C: 35%
[4]
  viability, T/C: 32.3%
[5]
  viability, T/C: 30.8%
[6]
  viability, T/C: 38.3%
[7]
  viability, T/C: 51.6%
[8]
  viability, T/C: 39.1%
[9]
  viability, T/C: 35.5%
[10]
  viability, T/C: 32.6%
[11]
  viability, T/C: 32.9%
[12]
  viability, T/C: 34.5%
[13]
  viability, T/C: 43.8%
[14]
  viability, T/C: 32.6%
[15]
  viability, T/C: 30.8%
[16]
  viability, T/C: 30.4%
[17]
  viability, T/C: 32.1%
[18]
  viability, T/C: 35.9%
[19]
  viability, T/C: 33.6%
[20]
  viability, T/C: 28.1%
[21]
  viability, T/C: 26.6%
[22]
  viability, T/C: 26.9%
[23]
  viability, T/C: 28.1%
[24]
  viability, T/C: 29.9%
[25]
  viability, T/C: 23.1%
[26]
  viability, T/C: 18.9%
[27]
  viability, T/C: 19.8%
[28]
  viability, T/C: 23.6%
[29]
  viability, T/C: 20.1%
[30]
  viability, T/C: 27.7%
